Experimental data taken from PubChem BioAssay (NCI).
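Test compounds were applied to cells in 96-well plates for 48 hours at 5 doses. TGI is the concentration that stops growth completely.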 Where a SMILES comes first, the peptide text is derived from it. [ ]: non-standard residue; d: D form. The star is where a group is joined. ξ: configuration not given here. NMeY = CN[C@@H](Cc1ccc(O)cc1)C(=O)O; Cbz = O=C(OCc1ccccc1)*; ξA = CC(N)C(=O)O

Columns and labels:
Experiment in all cases: NCI tumour cell line growth inhibition, 48 h
SF-268 CNS = test system: SF-268 CNS
HOP-62 NSCLC = test system: HOP-62 NSCLC
IGROV1 ovarian = test system: IGROV1 ovarian
SF-295 CNS = test system: SF-295 CNS
HS 578T breast = test system: HS 578T breast

| Structure (SMILES) | TGI (SF-268 CNS) [µM] | TGI (HOP-62 NSCLC) [µM] | TGI (IGROV1 ovarian) [µM] | TGI (SF-295 CNS) [µM] | TGI (HS 578T breast) [µM] |
| --- | --- | --- | --- | --- | --- |
| C=C1N(C)c2ccc(S(=O)(=O)c3ccc4c(c3)C(C)(C)C(=C)N4C)cc2C1(C)C | > 100 | > 100 | > 100 | > 100 | 89.2 |
| COc1ccc(C[C@H]2COC(=O)[C@@H]2Cc2ccc(Br)cc2)cc1OC | > 31.6 | > 100 | > 92.4 | > 74.3 | > 90.9 |
| COc1ccc(C[C@@H](C(=O)N[C@@H](C)C(N)=O)N(C)C(=O)[C@@H]2CCCN2C(=O)[C@H](CC(C)C)NC(=O)C(C)NC(=O)OCc2ccccc2)cc1 (stereo not given in full) (Cbz-[ξA]LP[NMeY](Me)A-NH2) | > 100 | > 100 | > 100 | > 100 | > 100 |
| COc1ccc2nc3ccc(OC)cc3c(S(=O)Cc3ccccc3)c2c1 (stereo not given) | 40.2 | 33.4 | 21.5 | 35.4 | 33.8 |
| O=C(Nc1ccccc1)OCCN=c1c2ccccc2ccc2ccccc12 | > 100 | > 100 | > 100 | 39 | 51.3 |
| Cc1cc2c(cc1Cl)SC(NNCCO)=NS2(=O)=O | > 100 | > 100 | > 100 | > 100 | > 100 |
| Cc1cc(C)c(NS(=O)c2ccc(Cl)cc2)c(C)c1 (stereo not given) | > 100 | > 100 |  | > 100 |  |
| O=c1[nH][nH]c(=O)n1Cc1ccccc1 | > 100 |  |  |  | > 100 |
| COc1ccc2nc3c4c(nccc4c2c1)-c1ncccc1C3=O | 3.96 | 0.402 | 0.279 | 0.278 |  |
| Cc1cc(NS(=O)(=O)c2ccc(NO)cc2)no1 | > 100 | > 100 | > 100 |  | > 100 |
| O=C1CSC(c2ccccc2)N1c1ccc(-c2ccc(-n3c(-c4ccccc4)nc4ccccc4c3=O)cc2)cc1 (stereo not given) | > 100 | > 100 | > 100 | > 100 | > 100 |
| COC(=O)c1cc(/C=C/C(=O)Cc2ccccc2)cn1S(=O)(=O)c1ccccc1 | > 100 | > 100 | > 100 | > 100 | > 100 |
| CN1N=C(c2ccncc2)OC1c1cccc(F)c1 (stereo not given) | > 100 | > 100 | > 100 | > 100 | > 100 |
| CC(=Nc1ccc(Cl)cc1)c1ccncc1 | > 100 | > 100 |  | > 100 | > 100 |
| CC(C)=CCC/C(C)=C/Cc1c2c(c3oc(-c4ccc(O)c(O)c4)c(O)c(=O)c3c1O)C=CC(C)(C)O2 | 10.7 | 10.7 | 8.5 | 13.4 | 18.7 |
| O=C(Nn1c(-c2ccccc2)nc2ccccc2c1=O)c1cccc([N+](=O)[O-])c1 | > 100 | > 100 | > 100 |  | > 100 |
| COc1ccc(COCC[C@H](C)OC2OC(CO[Si](C)(C)C(C)(C)C)C(O)C(O)C2O)cc1 (stereo not given in full) | > 100 | > 100 | > 100 | > 100 | > 100 |
| C1=NN2C(c3ccccc3)=NOC2C2C(c3ccccc3)=NOC12 (stereo not given) | > 100 | > 100 | > 100 | > 100 | > 100 |
| N#Cc1c(C#N)c(SSc2c(C#N)c(C#N)c(N)n2-c2cccc3ccccc23)n(-c2cccc3ccccc23)c1N | 33.2 | 49.9 | > 100 | 38.9 | > 57.6 |
| Cn1c2ncccc2n2c(=O)cc(O)cc12 | > 100 | > 100 | 31.5 | > 100 |  |
| CO[P@@]1(=O)O[C@@H](c2ccccc2)[C@H](O)[C@@]1(O)c1ccccc1 | > 100 |  | > 100 | > 100 | > 100 |
| Cc1cn(CC(=S)NCCc2c[nH]c3ccccc23)c(=O)[nH]c1=O | > 100 | > 100 | > 100 |  | > 100 |
| CC(C)CCNC(=O)c1ccc(CNC(=O)/C=C/c2ccc3ccccc3c2)cc1 | > 100 | > 100 |  | > 100 |  |
| COc1ccccc1N1CCN(S(=O)(=O)c2ccc(Cl)cc2)C1=N | > 100 | > 100 |  | > 100 | > 100 |
| N#CCCC1(CCC#N)S(=O)(=O)OCCOS1(=O)=O | > 100 | > 100 |  | > 100 | 78.4 |
| CCC1(c2ccc(OC)c(OC)c2)CCN(S(=O)(=O)c2ccc(C)cc2)C1 (stereo not given) | > 100 | > 100 | > 100 | > 100 |  |
| COc1cc2c(cc1NC(=O)c1ccccc1)c1c(n2S(=O)(=O)c2ccccc2)CCN(S(=O)(=O)c2ccccc2)C1 | > 100 | > 100 | > 100 |  | > 100 |
| CN1C(=O)C(=Cc2ccc(Br)cc2)C(=O)N(C)C1=O | > 100 | > 100 |  | > 100 |  |
